Experiments:
[1] = biological target: T1, ckGL (purified native galactolipase) (Parachlorella kessleri, UniProt A0A2Z5TTR4); assay: free fatty acid release (NEFA C kit, A550), Lineweaver-Burk linear regression; type: biochemical; details: pH 6.5 MES-NaOH, 37 °C, 2 mM CaCl2, 0.3% (w/v) Triton X-100; substrate is an acyl-chain mixture; read-out: apparent Km
T1 construct: gene chGL; native, purified from C. kessleri cells; N-terminus TALREVATKSEVSEA; ~53 kDa; in Triton X-100
T1 sequence (A0A2Z5TTR4 61-535): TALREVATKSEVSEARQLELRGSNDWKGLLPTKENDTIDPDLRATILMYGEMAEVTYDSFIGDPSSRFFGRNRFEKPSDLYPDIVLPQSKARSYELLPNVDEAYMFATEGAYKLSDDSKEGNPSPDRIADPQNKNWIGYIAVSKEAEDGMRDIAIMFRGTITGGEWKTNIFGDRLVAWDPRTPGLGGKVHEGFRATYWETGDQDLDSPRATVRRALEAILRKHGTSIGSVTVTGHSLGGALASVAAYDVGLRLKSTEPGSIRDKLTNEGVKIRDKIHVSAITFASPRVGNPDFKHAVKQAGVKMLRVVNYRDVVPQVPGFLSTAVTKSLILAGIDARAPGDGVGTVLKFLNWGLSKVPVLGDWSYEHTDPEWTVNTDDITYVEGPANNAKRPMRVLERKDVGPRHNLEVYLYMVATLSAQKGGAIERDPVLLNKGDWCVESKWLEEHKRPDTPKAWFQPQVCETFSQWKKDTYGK

rckGL (recombinant ckGL) = biological target: T2, rckGL (recombinant ckGL) (Parachlorella kessleri, UniProt A0A2Z5TTR4); assay: free fatty acid release (NEFA C kit, A550), nonlinear regression; type: biochemical; details: pH 6.5 MES-NaOH, 37 °C, 2 mM CaCl2, 0.3% (w/v) Triton X-100; substrate is an acyl-chain mixture; read-out: apparent Km
T2 construct: gene chGL; His-tag and trigger factor cut off with factor Xa; ~53 kDa
T2 sequence (A0A2Z5TTR4 61-535): T1 sequence (A0A2Z5TTR4 61-535)

Km [1]: 1050 ± 480 µM
Km (rckGL (recombinant ckGL)): 540 ± 110 µM
Substance: 1,2-diacyl-3-O-(α-D-galactosyl1-6)-β-D-galactosyl-sn-glycerol [DGDG]

Source: paper PMC5794828, “A novel galactolipase from a green microalga Chlorella kessleri: purification, characterization, molecular cloning, and heterologous expression” (Applied Microbiology and Biotechnology, 2018)
